Experimental findings from patent publication US20250230171A1 (MOMA Therapeutics, Inc., priority 2023, published 2025) are described below.

Where only a bound is given, the exact number is not on record here.

For the first test, the target named is biotinylated Avi-POLθ[2-894] (Homo sapiens (Human), UniProt O75417). In words: POLθ ATPase assay (ADP-Glo). As to conditions: POLθ ATPase, ADP-Glo; n=2; read-out: Biochemical ATPase ADPGlo IC50.
biotinylated Avi-POLθ[2-894], sequence (O75417 2-894): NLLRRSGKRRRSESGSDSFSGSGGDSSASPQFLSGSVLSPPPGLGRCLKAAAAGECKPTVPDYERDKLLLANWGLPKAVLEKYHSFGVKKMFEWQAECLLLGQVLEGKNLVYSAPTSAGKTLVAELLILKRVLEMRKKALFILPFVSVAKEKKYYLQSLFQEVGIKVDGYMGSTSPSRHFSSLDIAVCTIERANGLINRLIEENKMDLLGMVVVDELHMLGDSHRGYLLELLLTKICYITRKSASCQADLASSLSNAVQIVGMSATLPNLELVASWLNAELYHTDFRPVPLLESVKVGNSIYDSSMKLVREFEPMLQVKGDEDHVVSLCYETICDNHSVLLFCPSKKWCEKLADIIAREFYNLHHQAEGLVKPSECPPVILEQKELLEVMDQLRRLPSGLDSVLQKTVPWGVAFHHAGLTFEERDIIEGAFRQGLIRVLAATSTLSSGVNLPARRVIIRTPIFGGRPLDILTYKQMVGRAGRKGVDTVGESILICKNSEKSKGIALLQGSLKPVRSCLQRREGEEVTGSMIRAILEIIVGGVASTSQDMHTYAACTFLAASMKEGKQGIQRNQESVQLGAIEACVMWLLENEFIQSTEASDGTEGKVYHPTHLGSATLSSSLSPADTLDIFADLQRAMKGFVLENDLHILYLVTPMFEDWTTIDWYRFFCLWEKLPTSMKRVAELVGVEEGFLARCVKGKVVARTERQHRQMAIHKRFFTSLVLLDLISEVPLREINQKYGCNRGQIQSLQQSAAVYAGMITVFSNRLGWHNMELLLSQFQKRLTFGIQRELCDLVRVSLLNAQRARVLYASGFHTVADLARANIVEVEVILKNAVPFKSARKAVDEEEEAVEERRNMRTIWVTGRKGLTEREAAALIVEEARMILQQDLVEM
In general, IC50 refers to the point on the concentration scale where inhibition reaches its midpoint. As to `COc1nc(C(F)(F)F)ccc1C(=O)N1Cc2nc(NC(=O)c3cnc(C)cc3-c3cc(Cl)c[nH]c3=O)sc2C1` [Example 1045, 5-chloro-N-(5-(2-methoxy-6-(trifluoromethyl)nicotinoyl)-5,6-dihydro-4H-pyrrolo[3,4-d]thiazol-2-yl)-6′-methyl-2-oxo-1,2-dihydro-[3,4′-bipyridine]-3′-carboxamide], the half-maximal inhibitory concentration (IC50) was at least 0.9 µM.

For the compound `COc1ccc(C#N)cc1-c1cc(C)ncc1C(=O)Nc1nc2c(s1)CN(C(=O)c1ccc(F)c(C(F)F)c1)C2`, the concentration for half-maximal inhibition (IC50) is 0.001 to 0.015 µM.

As for `COc1cnc(Cl)cc1-c1cc(C)ncc1C(=O)Nc1nc2c(s1)CN(C(=O)[C@@H]1CCC[C@](O)(C(F)(F)F)C1)C2` [Example 761], the IC50 was 0.001 to 0.015 µM.

On to `COc1cnc(Cl)cc1-c1cc(C)ncc1C(=O)Nc1nc2c(s1)CN(C(=O)[C@@H]1CC[C@](O)(C(F)(F)F)C1)C2` [Example 734, 2′-chloro-N-(5-((1R,3R)-3-hydroxy-3-(trifluoromethyl)cyclopentane-1-carbonyl)-5,6-dihydro-4H-pyrrolo[3,4-d]thiazol-2-yl)-5′-methoxy-6-methyl-[4,4′-bipyridine]-3-carboxamide], for which the IC50 was 0.001 to 0.015 µM.

The test is the same for the next values; noted with them: n=2; read-out: Biochemical ATPase ADPGlo IC50.
As to `COc1ccccc1-c1cc(C)ncc1C(=O)Nc1nc2c(s1)CN(C(=O)C1C3COCC31)C2` (centres unmarked), the IC50 is 0.15 to 0.9 µM.

Take `COc1cnc(Cl)cc1-c1cc(C)ncc1C(=O)Nc1nc2c(s1)CN(C(=O)C1CC(N(C)C)C1)C2` (centres unmarked) [Example 43, 2′-chloro-N-(5-(3-(dimethylamino)cyclobutane-1-carbonyl)-5,6-dihydro-4H-pyrrolo[3,4-d]thiazol-2-yl)-5′-methoxy-6-methyl-[4,4′-bipyridine]-3-carboxamide]: the IC50 fell in the range of 0.15 to 0.9 µM.

Take `COc1ccc(C#N)cc1-c1cc(C)ncc1C(=O)Nc1nc2c(s1)CN(C(=O)C1CC(C)C1)C2` (centres unmarked) [Example 189]: the IC50 was 0.001 to 0.015 µM.

For `COc1cn2cncc2cc1-c1cc(C)ncc1C(=O)Nc1nc2c(s1)CN(C(=O)[C@H]1C[C@@H](OC(F)(F)F)C1)C2` [Example 97, 4-(6-methoxyimidazo[1,5-a]pyridin-7-yl)-6-methyl-N-(5-((1s,3s)-3-(trifluoromethoxy)cyclobutane-1-carbonyl)-5,6-dihydro-4H-pyrrolo[3,4-d]thiazol-2-yl)nicotinamide], the IC50 is 0.001 to 0.015 µM.

On to `COc1ccccc1-c1cc(C)ncc1C(=O)Nc1nc2c(s1)CN(C(=O)c1cccnc1)C2`, for which the IC50 lay within 0.05 to 0.15 µM.

With `COc1ccc(C#N)cc1-c1cc(C)ncc1C(=O)Nc1nc2c(s1)CN(C(=O)C1CC1OC)CC2` (centres unmarked) [Example 207], the IC50 lay in the range of 0.015 to 0.05 µM.

`COc1cnc(Cl)cc1-c1cc(C)ncc1C(=O)Nc1nc2c(s1)C[C@H](NC(=O)[C@H]1C[C@@H](O)C1)CC2` (racemic) [Example 144]: the IC50 was in the range of 0.15 to 0.9 µM.

For the compound `COc1ccccc1-c1cc(C)ncc1C(=O)Nc1nc2c(s1)CN(C(=O)C1CS(=O)(=O)C1)C2`, the half-maximal inhibitory concentration (IC50) fell in the range of 0.15 to 0.9 µM.

For the compound `COc1ccc(C#N)cc1-c1cc(C)ncc1C(=O)Nc1nc2c(s1)CN(C(=O)c1cccnc1)CC2`, the IC50 fell in the range of 0.15 to 0.9 µM.

For `COc1ccccc1-c1cc(C)ncc1C(=O)Nc1nc2c(s1)CC(Oc1ccccc1)CC2` (centres unmarked), the 50% inhibitory concentration (IC50) is at least 0.9 µM.

Take `COc1ccccc1-c1cc(C)ncc1C(=O)Nc1nc2c(s1)CC(c1ccc(Cl)cc1)CC2` (centres unmarked): the IC50 lay in the range of 0.05 to 0.15 µM.

Regarding `COc1ccccc1-c1cc(C)ncc1C(=O)Nc1nc2c(s1)CN(C(=O)CN1CCOC1=O)C2`, the IC50 is at least 0.9 µM.

On to `COc1cnccc1-c1cc(C)ncc1C(=O)Nc1nc2c(s1)CN(C(=O)c1ccccn1)C2` [Example 98, 3′-methoxy-6-methyl-N-(5-picolinoyl-5,6-dihydro-4H-pyrrolo[3,4-d]thiazol-2-yl)-[4,4′-bipyridine]-3-carboxamide], for which the IC50 was 0.15 to 0.9 µM.

As for `COc1ccc(C#N)cc1-c1cc(C)ncc1C(=O)Nc1nc2c(s1)CN(C(=O)C1CC1C)CC2` (mixture of isomers) [Example 212, 4-(5-cyano-2-methoxyphenyl)-6-methyl-N-(5-(2-methylcyclopropane-1-carbonyl)-4,5,6,7-tetrahydrothiazolo[5,4-c]pyridin-2-yl)nicotinamide Mixture of isomers], the IC50 lay within 0.001 to 0.015 µM.

On to `COc1cnc(Cl)cc1-c1cc(C)ncc1C(=O)Nc1nc2c(s1)CN(C(=O)[C@@H]1C[C@@H]1C(F)F)C2` [Example 104, 2′-chloro-N-(5-((1R,2S)-2-(difluoromethyl)cyclopropane-1-carbonyl)-5,6-dihydro-4H-pyrrolo[3,4-d]thiazol-2-yl)-5′-methoxy-6-methyl-[4,4′-bipyridine]-3-carboxamide], for which the IC50 was 0.015 to 0.05 µM.

As to `CCNS(=O)(=O)N1Cc2nc(NC(=O)c3cnc(C)cc3-c3ccccc3OC)sc2C1`, the concentration for half-maximal inhibition (IC50) was in the range of 0.015 to 0.05 µM.

For `COc1ccc(C#N)cc1-c1cc(C)ncc1C(=O)Nc1nc2c(s1)CN(S(=O)(=O)N1CCCC1)CC2`, the IC50 was in the range of 0.05 to 0.15 µM.

Regarding `COc1ccc(C#N)cc1-c1cc(C)ncc1C(=O)Nc1nc2c(s1)CN(S(=O)(=O)N1CCC1)C2`, the IC50 lay in the range of 0.001 to 0.015 µM.

Turning to `COc1cnc(Cl)cc1-c1cc(C)ncc1C(=O)Nc1nc2c(s1)CN(C(=O)[C@@H]1CCOC1)C2` [Example 181], the 50% inhibitory concentration (IC50) lay in the range of 0.001 to 0.015 µM.

Take `COc1ccccc1-c1cc(C)ncc1C(=O)Nc1nc2c(s1)CC(Nc1ccccc1)CC2` (centres unmarked): the half-maximal inhibitory concentration (IC50) is 0.05 to 0.15 µM.

Regarding `COc1cnc(Cl)cc1-c1cc(C)ncc1C(=O)Nc1nc2c(s1)CN(C(=O)[C@H]1C[C@@](C)(O)C1)C2` [Example 193], the IC50 was 0.001 to 0.015 µM.

Take `COc1ccccc1-c1cc(C)ncc1C(=O)Nc1nc2c(s1)CN(C(=O)c1cnco1)C2`: the IC50 was in the range of 0.15 to 0.9 µM.

`COc1ccc(C#N)cc1-c1cc(C)ncc1C(=O)Nc1nc2c(s1)CN(C(=O)C1CCC1)C2`: the IC50 lay within 0.001 to 0.015 µM.

For the compound `COc1cnc(Cl)cc1-c1cc(C)ncc1C(=O)Nc1nc2c(s1)CN(C(=O)c1cncn1C)C2` [Example 30, 2′-chloro-5′-methoxy-6-methyl-N-(5-(1-methyl-1H-imidazole-5-carbonyl)-5,6-dihydro-4H-pyrrolo[3,4-d]thiazol-2-yl)-[4,4′-bipyridine]-3-carboxamide], the IC50 lay in the range of 0.015 to 0.05 µM.

Take `COc1ccccc1-c1cc(C)ncc1C(=O)Nc1nc2c(s1)CN(C(=O)C1(C#N)CCC1)C2`: the IC50 lay in the range of 0.15 to 0.9 µM.

For the compound `COc1ccccc1-c1cc(C)ncc1C(=O)Nc1nc2c(s1)CN(C(=O)c1cnnn1C)C2`, the IC50 lay within 0.15 to 0.9 µM.

In the case of `COc1cnc(Cl)cc1-c1cc(C)ncc1C(=O)Nc1nc2c(s1)CN(C(=O)N1CC(OC(F)F)C1)C2`, the IC50 fell in the range of 0.001 to 0.015 µM.

On to `COc1cnc(Cl)cc1-c1cc(C)ncc1C(=O)Nc1nc2c(s1)CC(N1CCCCC1)CC2` (racemic) [Example 110], for which the IC50 is at least 0.9 µM.

As to `COc1ccc(C#N)cc1-c1cc(C)ncc1C(=O)Nc1nc2c(s1)CN(C(=O)c1ccncc1)CC2` (racemic) [Example 213], the IC50 lay in the range of 0.15 to 0.9 µM.

In the case of `COc1ccc(C#N)cc1-c1cc(C)ncc1C(=O)Nc1nc2c(s1)CN(S(=O)(=O)c1cccnc1)C2`, the 50% inhibitory concentration (IC50) lay within 0.05 to 0.15 µM.

In the case of `COc1ccccc1-c1cc(C)ncc1C(=O)Nc1nc2c(s1)CN(C(=O)C1CCCS1(=O)=O)C2` (centres unmarked), the IC50 is at least 0.9 µM.

Take `COc1cnc(Cl)cc1-c1cc(C)ncc1C(=O)Nc1nc2c(s1)CN(C(=O)C1CC(OC(C)C)C1)C2` (centres unmarked) [Example 119]: the IC50 is 0.001 to 0.015 µM.

With `COc1ccccc1-c1cc(C)ncc1C(=O)Nc1nc2c(s1)CN(C(=O)c1cn(C)nn1)C2`, the IC50 was in the range of 0.15 to 0.9 µM.

Consider `COCC1(C(=O)N2Cc3nc(NC(=O)c4cnc(C)cc4-c4ccccc4OC)sc3C2)CCC1` (racemic), for which the concentration for half-maximal inhibition (IC50) was in the range of 0.15 to 0.9 µM.
